In brackets after ≈: the same amount, converted by molar mass. Entries after “also recorded” stand apart in the source; their conditions may differ.
Columns and labels:
[1] = Antioxidant potentiality assay by linoleic acid peroxidation (thiocyanide method); conditions: in water, aqueous medium; FIG. 1
Procedure: 0.28 gm of linoleic acid, 0.28 gm of tween 40 as emulsifier and 50 ml of phosphate buffer (0.2 M, pH 7) were used to prepare a linoleic acid emulsion. The curcuminoids (5 mg per ml) were dissolved in water and 0.5 ml of each one of them was pipetted out into different test-tubes. Then 2.5 ml of linoleic acid emulsion was added to each one of them followed by the addition of 2.5 ml of phosphate buffer. All the tubes were incubated at 37° C. for 7 days. The mixture prepared as above without test sample was the control one. At the regular interval of 24 hours, 0.1 ml of the aliquots were drawn out of the incubation mixture and mixed with 5 ml of 75% ethanol, 0.1 ml of 30% ammonium thiocyanate and 0.1 ml of 20 mM ferrous chloride in 3.5% HCl. The tubes were allowed to stand in room temperature for 3 minutes. Spectrophotometric analysis was done at 500 nm. All the tests were carried out in duplicate and averaged. Anoxidant activity=[1-increase in absorbance of the sample/increase in absorbance of control]*100.

[2] = target: T1, Amyloid βeta (Aβeta) fragment 25-35 (Homo sapiens, UniProt P05067); assay: Dissolution of Amyloid beta fragments (transmission electron microscopy); assay type: biochemical; conditions: for concentration at which the compound works in dissolving amyloid aggregates: Aβeta 25-35 50 μg/ml, 37° C., 6 days
T1 construct: Amyloid βeta (Aβeta) fragment 25-35 (Sigma A-4559); purchased Sigma A-4559
Procedure: Amyloid βeta (Aβeta) fragment 25-35 (Sigma A-4559) was diluted in water to a stock of 1 mg/ml. […] Samples were incubated at 37° C. for 6 days. Aggregation of the protein fragment was determined using transmission electron microscopy. 200 mesh carbon coated grids (Electron Microscopy Sciences) were used and prepared for negative staining by adding 5 μl of incubation mixture to the grid surface for one minute, followed by drying the grid with filter paper and contrasting with 5 μl of freshly filtered 2% phosphotungstic acid (pH=7.2) for one minute. Once grids were dry, examination was done using the FEI Tecnai Spirit at the College of Staten Island's Advanced Imaging Facility. Micrographs were captured using an AMT CCD camera.

[3] = tested on: cultured hippocampal slices (normal brain tissue); assay: MTT cell viability assay on cultured hippocampal slices; assay type: cell-based, mouse; conditions: for cell viability (MTT) versus control: overnight, hippocampal slices
Procedure: To assess the viability of the normal brain tissue in presence of the sweet curry MTT assay on cultured hippocampal slices were performed.
Mouse pups of specific ages were anesthetized with ketamine (100 mg/kg) and decapitated. Under sterile conditions, the brains were isolated and then cut at 60° from the longitudinal fissure at the top using a hippocampus-dissecting tool to expose the hippocampus. The hemispheres containing the hippocampi were then placed in modified Gey's balanced salt solution (mGBSS) at 4° C. for 30-40 minutes while bubbling a mixture of 95% O2 and 5% CO2. Individual hippocampi were isolated using dissection tool and then […] thick transverse slices were prepared using a tissue chopper (Stoelting, Wood Dale, Ill., USA). The slices were placed in ice cold mGBSS and inspected using a dissection microscope for the presence of uninterrupted bright transparent neuronal layers characteristic of the hippocampal structure. Only such slices were placed on Millicell CM filters (Millipore, Bedford, Mass., USA). The filters were placed in a six well dish with 1 ml of medium in each well. The slices were kept on high K^+ culture medium (25% horse serum, 50% Basal Essential Media-Eagles, 25% Eagle's Balanced Salt Solution (EBSS), 25 mM Na-HEPES, 1 mM Glutamine, 28 mM Glucose, pH 7.2) for the first two days. After incubation at 32° C. in a 5% CO2 atmosphere, the culture medium was changed to physiological K^+ slice culture medium (20% dialyzed fetal bovine serum, 5% Basal Essential Media-Eagles, and EBSS modified to adjust the K^+ concentration to 2.66 mM). After 20% dialyzed serum treatment for two days and the slices were placed in 5% serum medium (same medium as above but with 5% serum) for two days.
Hippocampal slices from adult mice brain were cultured as described by Mehta et al (2007). After six days in vitro the slices were treated with different concentrations of the sweet curry (i.e., 8 nM, 8 μM and 80 μM respectively) overnight along with the slices treated with the carrier as control.
After the treatment with sweet curry, slices from each treatment group were placed in 400 μl PBS in one well of 48-well plate and then treated with 200 μl of MTT (5 mg/ml) per well with gentle mixing at 37° C. for 2 hours. The slices were triturated to homogenize with the help of a micropipette. After that 800 μl of lysis buffer (20% SDS, 50% dimethylformamide) was added to each well and the plate was sealed and incubated overnight at 37° C. with gentle mixing. Now 100 μl mix from each well was taken in respective wells of a 96 well plate in triplicates and absorbance was measured at 570 nm using a plate reader. Results obtained were normalized to the total protein content and then expressed as percent carrier-treated samples.

[4] = Solubility study via UV-Vis spectroscopy (direct solubility in water)
Procedure: Both sample were centrifuged at 13,000 RPM for 2 min. 100 μL of the sugar conjugate solution was added to 900 μL of deionized water and thoroughly mixed. […] It should be noted that the solubility study outlined above measures the direct solubility of the compounds in water and closely models “real life” conditions, in contrast to other experiments in which the compounds are first dissolved in other solvents followed by dilution in water.

concentration at which the compound works in dissolving amyloid aggregates ([2]; electron micrographs)	effectiveness in dissolving amyloid aggregates relative to curcumin ([2]; ratio of working concentrations) [times]	solubility ([4]; deionized water, water, thermodynamic from solid) [mM]	Compound	anti-oxidant potential (AOP), comparison in words [1]	effectiveness in dissolving amyloid aggregates ([2]; electron micrographs)	effect on normal brain tissue (viability), conclusion ([3]; 8 nM to 80 μM)	cell viability (MTT) versus control ([3]; 8 nM)	cell viability (MTT) versus control ([3]; 8 μM)	cell viability (MTT) versus control ([3]; 80 μM)	solubility in water relative to curcumin and derivatives ([4]; water (plasma model), listed as Sweet curry 1d)
8 nmol	1000	6 (≈ 4460 µg/mL)	COc1cc(/C=C/C(=O)CC(=O)/C=C/c2ccc(OCc3cn(CCOCCOCCOC4OC(CO)C(O)C(O)C4O)nn3)c(OC)c2)ccc1O (centres unmarked) [Compound 1d, curcumin-“Clicked”-mono-galactose]	much better antioxidant than Curcumin 1 as well as other curcumin derivatives (1a,1b)	significantly more effective than curcumin in dissolving amyloid aggregates	no harmful effect on the normal brain tissue	near the control samples	near the control samples	a little higher than the control samples	far superior solubility compared to curcumin in water; also recorded: superiorly soluble in water compared to Curcumin and derivatives 1a and 1b
8 µM			COc1cc(/C=C/C(=O)CC(=O)/C=C/c2ccc(O)c(OC)c2)ccc1O [curcumin, (1E,6E)-1,7-bis(4-hydroxy-3-methoxyphenyl)hepta-1,6-diene 3,5-dione, reference compound]							

Reference: patent US9650404B2 (RESEARCH FOUNDATION OF THE CITY UNIVERSITY OF NEW YORK, priority 2010, dated 2017)
